Laboratory results reported in PubChem BioAssay (NCI).
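Protocol summary: plate cells (96-well), add compound at 5 concentrations, incubate 48 h, interpolate endpoints linearly. At the GI50, growth is halved. TGI: concentration producing complete growth inhibition.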

Experiments:
Assay in all cases: NCI-60 cell line screen, 48 h
NCI-H226 lung = tested on: NCI-H226 lung
BT-549 breast = tested on: BT-549 breast
NCI/ADR-RES ovarian = tested on: NCI/ADR-RES ovarian
LOX IMVI melanoma = tested on: LOX IMVI melanoma
SN12C renal = tested on: SN12C renal
T-47D breast = tested on: T-47D breast
ACHN renal = tested on: ACHN renal
K-562 leukemia = tested on: K-562 leukemia
MDA-MB-231 breast = tested on: MDA-MB-231 breast
HCT-116 colon = tested on: HCT-116 colon

| SMILES | GI50 (NCI-H226 lung) | TGI (NCI-H226 lung) | GI50 (BT-549 breast) | TGI (BT-549 breast) | GI50 (NCI/ADR-RES ovarian) | TGI (NCI/ADR-RES ovarian) | GI50 (LOX IMVI melanoma) | TGI (LOX IMVI melanoma) | GI50 (SN12C renal) | TGI (SN12C renal) | GI50 (T-47D breast) | GI50 (ACHN renal) | TGI (ACHN renal) | GI50 (K-562 leukemia) | GI50 (MDA-MB-231 breast) | TGI (MDA-MB-231 breast) | GI50 (HCT-116 colon) | TGI (HCT-116 colon) | TGI (T-47D breast) | TGI (K-562 leukemia) |
| --- | --- | --- | --- | --- | --- | --- | --- | --- | --- | --- | --- | --- | --- | --- | --- | --- | --- | --- | --- | --- |
| NC(=O)c1c(NC(=O)c2cccc(C(F)(F)F)c2)sc2c1CCC(=O)C2 | 5.37 µM | > 100 µM | 0.352 µM | 9.08 µM | 0.528 µM | 7.69 µM | 0.356 µM | 2.8 µM | 0.392 µM | > 100 µM | 0.274 µM | 0.322 µM | 1.05 µM | 0.124 µM | 0.379 µM | 2.73 µM | 0.249 µM | > 32.2 µM | – | – |
| Cc1ccc(NCCNCC(O)CO)c2c(=O)c3ccccc3sc12 (stereo not drawn) | 1.65 µM | 3.44 µM | 2.47 µM | 10.5 µM | 1.67 µM | 3.75 µM | 1.43 µM | 2.84 µM | 1.32 µM | 3.19 µM | 1.79 µM | 1.29 µM | 3.07 µM | 1.52 µM | 1.37 µM | 3 µM | 1.05 µM | 2.3 µM | 4.08 µM | 3.26 µM |
| O=C(Nc1cccc(Cl)c1)c1cc(Cl)ccc1O | 1.05 µM | 4.12 µM | 0.362 µM | 1.29 µM | 1.64 µM | > 29.4 µM | 0.543 µM | 2.26 µM | 0.491 µM | 4.15 µM | 1.24 µM | 1.14 µM | 10.6 µM | 0.542 µM | 1.15 µM | 8.23 µM | 0.562 µM | 2.12 µM | 7.38 µM | > 100 µM |
| N=C(N)SCC(=O)O | – | > 100 µM | – | > 100 µM | – | > 100 µM | – | > 100 µM | – | > 100 µM | – | – | > 100 µM | – | – | > 100 µM | – | > 100 µM | > 100 µM | > 100 µM |
| CC(C)(C)OC(=O)n1c(Cl)c(C(=O)N=C=S)c2ccccc21 | > 100 µM | > 100 µM | 30.9 µM | 91.7 µM | 18.5 µM | 62.6 µM | 29.2 µM | > 100 µM | 67.1 µM | > 100 µM | 47.8 µM | 29.5 µM | > 100 µM | 47 µM | 15.7 µM | 46 µM | 55.7 µM | > 100 µM | > 100 µM | > 100 µM |
| Cc1ccc(S(=O)c2ccc([N+](=O)[O-])c3nonc23)cc1 (stereo not drawn) | 15.7 µM | 43.2 µM | 10.1 µM | 21.7 µM | 15.8 µM | 48.9 µM | 5.88 µM | 19.2 µM | 15 µM | 31.3 µM | 2.04 µM | 1.92 µM | 3.75 µM | 3.02 µM | 10.1 µM | 22.6 µM | 1.82 µM | 3.39 µM | 4.59 µM | 9.18 µM |
| Cc1cc(C(=O)Nc2cc(Nc3ncccc3-c3ncnc4nc[nH]c34)ccc2F)cc(C(C)(C)C#N)c1 | 0.527 µM | > 100 µM | 2.95 µM | > 100 µM | 2.81 µM | > 100 µM | 0.0414 µM | 0.338 µM | 1.91 µM | > 100 µM | 2.59 µM | 1.22 µM | > 100 µM | 0.306 µM | 0.123 µM | 5.36 µM | 0.151 µM | > 41.9 µM | > 91.7 µM | > 100 µM |
| COc1cc(/C=C2\C(=O)Nc3ccc(Br)cc32)cc(OC)c1OC | 60.9 µM | > 100 µM | 1.28 µM | 19.3 µM | 4.01 µM | 29.4 µM | 10.6 µM | > 100 µM | > 93.8 µM | > 100 µM | 3.06 µM | 31.9 µM | > 100 µM | 1.11 µM | 7.68 µM | > 52.9 µM | 4.86 µM | > 100 µM | > 100 µM | > 100 µM |
| COc1ccc2nc3cc(Cl)ccc3c(Nc3ccc(O)c(CN4CCCC4)c3)c2c1 | 1.84 µM | 3.75 µM | 14.5 µM | 28.1 µM | 1.93 µM | 4.54 µM | 1.73 µM | 3.47 µM | 1.84 µM | 4.56 µM | 2.18 µM | 1.74 µM | 3.18 µM | 1.99 µM | 1.66 µM | 3.84 µM | 1.41 µM | 2.92 µM | 6.46 µM | 6.44 µM |
| C#CCn1cc(C=C2C(=O)NC(=S)NC2=O)c2cc(Cl)ccc21 | 2.82 µM | 8.47 µM | 1.91 µM | 3.89 µM | 3.09 µM | 12.8 µM | 1.65 µM | 3.11 µM | 2.05 µM | 4.49 µM | 3.04 µM | 1.97 µM | 4.07 µM | 2.85 µM | 1.81 µM | 3.62 µM | 1.86 µM | 3.6 µM | 14.1 µM | > 100 µM |
| COc1cccc(C2CC(=O)Nc3cc4c(cc32)CCC4)c1OC (stereo not drawn) | 9.7 µM | 44.2 µM | 3.57 µM | 16.7 µM | 2.43 µM | 7.14 µM | 4.26 µM | 16.8 µM | 5.4 µM | 34.8 µM | 5.52 µM | 6.72 µM | > 84 µM | 3.07 µM | 6.17 µM | 39.5 µM | 3.61 µM | 16 µM | 52.3 µM | 37.5 µM |
